Source: publication PMC5654968 (NPJ Systems Biology and Applications, 2017)
Where two headings read alike, the source gives them in different places.

Experiment: Plasma PK of major maoto compounds by LC-MS/MS after oral administration of maoto
Type: in vivo, rat
Description: 1 (7:00-19:00). Rats were maintained and used for the experiments in accordance
2 with the Guidelines for the Care and Use of Laboratory Animals of Tsumura &
3 CO. All experimental procedures were carried out upon approval from the
4 Laboratory Animal Committee of Tsumura & CO.
8 administered to 16-h fasted rats (n=3). […]
14 and 4 g/10mL/kg) were determined by LC-MS/MS. Based on a literature search,
16 amygdalin, prunasin, scopoletin, l-ephedrine, d-pseudoephedrine,
1 Plasma PK data were analyzed by noncompartmental modeling using
2 Phoenix WinNonlin (version 6.3, Certara L.P., St. Louis, MO, USA) to determine
3 various PK constants including Cmax, tmax, t1/2, and AUC0–last. The t1/2 was divided
4 by loge2/ke, where ke is the rate constant of terminal elimination (at least three
5 data points on the descending linear limb). […]

[1] = Sprague-Dawley, rat, plasma, po, 1 g/kg
[2] = Sprague-Dawley, rat, plasma, po, 1 g/kg, read-out: Cmax
[3] = Sprague-Dawley, rat, plasma, po, 1 g/kg, read-out: Tmax
[4] = Sprague-Dawley, rat, plasma, po, 2 g/kg
[5] = Sprague-Dawley, rat, plasma, po, 2 g/kg, read-out: Cmax
[6] = Sprague-Dawley, rat, plasma, po, 2 g/kg, read-out: Tmax
[7] = Sprague-Dawley, rat, plasma, po, 4 g/kg
[8] = Sprague-Dawley, rat, plasma, po, 4 g/kg, read-out: Cmax
[9] = Sprague-Dawley, rat, plasma, po, 4 g/kg, read-out: Tmax

SMILES	AUC(0-t) [1] [ng·h/mL]	half-life [1] [h]	Cmax [2] [ng/mL]	Tmax [3] [h]	AUC(0-t) [4] [ng·h/mL]	half-life [4] [h]	Cmax [5] [ng/mL]	Tmax [6] [h]	AUC(0-t) [7] [ng·h/mL]	half-life [7] [h]	Cmax [8] [ng/mL]	Tmax [9] [h]	also measured
CC(C(O)c1ccccc1)N(C)C (racemic) [dl-Methylephedrine]	18.7	5.96	16.6	0.25	46	1.99	22.5	0.25	94.9	11.5	37	0.25	–
O=c1ccc2ccc(O)cc2o1 [7-hydroxycoumarin]	–	–	–	–	–	–	–	–	–	–	–	–	detection in rat plasma by targeted LC-MS/MS (oral maoto 2 g/kg): not detected; AUClast (rat plasma, oral maoto 1 g/kg): BQL; Cmax (rat plasma, oral maoto 1 g/kg): BQL; AUClast (rat plasma, oral maoto 2 g/kg): BQL; Cmax (rat plasma, oral maoto 2 g/kg): BQL; AUClast (rat plasma, oral maoto 4 g/kg): BQL; Cmax (rat plasma, oral maoto 4 g/kg): BQL
Oc1cc(O)c2c(c1)O[C@H](c1ccc(O)c(O)c1)[C@@H](O)C2 [(+)-Catechin]	–	–	–	–	–	–	–	–	–	–	–	–	AUClast (rat plasma, oral maoto 1 g/kg): BQL; Cmax (rat plasma, oral maoto 1 g/kg): BQL; AUClast (rat plasma, oral maoto 2 g/kg): 0.111 ng·h/mL; Cmax (rat plasma, oral maoto 2 g/kg): 0.443 ng/mL; Tmax (rat plasma, oral maoto 2 g/kg): 1.00 h; AUClast (rat plasma, oral maoto 4 g/kg): 1.71 ng·h/mL; Cmax (rat plasma, oral maoto 4 g/kg): 3.75 ng/mL; Tmax (rat plasma, oral maoto 4 g/kg): 0.250 h
N#C[C@H](O[C@@H]1O[C@H](CO[C@@H]2O[C@H](CO)[C@@H](O)[C@H](O)[C@H]2O)[C@@H](O)[C@H](O)[C@H]1O)c1ccccc1 [Amygdalin]	346	1.31	101	0.25	1520	0.937	653	1	7610	2.47	5250	0.25	–
O=C(O)/C=C/c1ccccc1 [Cinnamic acid]	624	–	1060	–	2060	1.3	1280	–	5750	1.64	2120	–	–
Oc1cc(O)c2c(c1)O[C@H](c1ccc(O)c(O)c1)[C@H](O)C2 [Epicatechin]	4.24	5.05	1.82	0.5	2.78	2.03	1.95	0.25	6.92	3.49	8.34	0.25	–
Oc1cc(O)c2c(c1)O[C@H](c1cc(O)c(O)c(O)c1)[C@H](O)C2 [Epigallocatechin]	0.457	5.23	0.197	0.5	0.26	3.16	0.103	0.5	0.286	0.834	0.456	0.25	–
COc1c(CC=C(C)C)c(O)cc2oc(=O)c(-c3ccc(O)cc3O)cc12 [Glycycoumarin]	0.0105	–	0.0836	0.25	0.0227	–	0.0906	1	0.058	–	0.0753	0.25	–
CC1(C)[C@@H](O)CC[C@]2(C)[C@H]3C(=O)C=C4[C@@H]5C[C@@](C)(C(=O)O)CC[C@]5(C)CC[C@@]4(C)[C@]3(C)CC[C@@H]12 [Glycyrrhetinic acid]	2240	–	234	8	4510	–	373	–	3950	–	301	8	Tmax (rat plasma, oral maoto 2 g/kg): 10 h
O=C(/C=C/c1ccc(O)cc1)c1ccc(O)cc1O [Isoliquiritigenin]	19.8	–	10.4	0.25	31	11.1	10.1	0.25	58.9	3.61	7.59	0.25	t1/2 (rat plasma, oral maoto 1 g/kg): 3.42 h
O=C(/C=C/c1ccc(O[C@@H]2O[C@H](CO)[C@@H](O)[C@H](O)[C@H]2O)cc1)c1ccc(O)cc1O [Isoliquiritin]	2.09	2.3	1.6	0.25	6.03	–	3.6	1	12.6	3.14	8.71	0.25	–
O=C1C[C@@H](c2ccc(O)cc2)Oc2cc(O)ccc21 [Liquiritigenin]	–	–	–	–	–	–	–	–	–	–	–	–	AUClast (rat plasma, oral maoto 1 g/kg): 17.4 ng·h/mL; Cmax (rat plasma, oral maoto 1 g/kg): 18.0 ng/mL; Tmax (rat plasma, oral maoto 1 g/kg): 0.250 h; AUClast (rat plasma, oral maoto 2 g/kg): 35.0 ng·h/mL; Cmax (rat plasma, oral maoto 2 g/kg): 15.1 ng/mL; Tmax (rat plasma, oral maoto 2 g/kg): 1.00 h; AUClast (rat plasma, oral maoto 4 g/kg): 84.4 ng·h/mL; Cmax (rat plasma, oral maoto 4 g/kg): 16.1 ng/mL; Tmax (rat plasma, oral maoto 4 g/kg): 0.250 h
O=C1C[C@@H](c2ccc(O[C@@H]3O[C@H](CO)[C@@H](O)[C@H](O)[C@H]3O)cc2)Oc2cc(O)ccc21 [Liquiritin]	8.9	1.95	3.04	0.25	22.4	2.23	7.23	1	61.4	4.34	71.7	0.25	–
Oc1cc(O)c2c(c1)O[C@H](c1ccc(O)c(O)c1)[C@H](O)[C@H]2c1c(O)cc(O)c2c1O[C@H](c1ccc(O)c(O)c1)[C@H](O)C2 [Procyanidin B2]	–	–	–	–	0.172	–	0.687	1	2.06	–	4.64	0.25	AUClast (rat plasma, oral maoto 1 g/kg): BQL; Cmax (rat plasma, oral maoto 1 g/kg): BQL
Oc1cc(O)c2c(c1)O[C@H](c1ccc(O)c(O)c1)[C@H](O)[C@H]2c1c(O)cc(O)c2c1O[C@H](c1ccc(O)c(O)c1)[C@H](O)[C@H]2c1c(O)cc(O)c2c1O[C@H](c1ccc(O)c(O)c1)[C@H](O)C2 [Procyanidin C1]	–	–	–	–	–	–	–	–	1.69	–	3.9	0.25	detection in rat plasma by targeted LC-MS/MS (oral maoto 2 g/kg): not detected; AUClast (rat plasma, oral maoto 1 g/kg): BQL; Cmax (rat plasma, oral maoto 1 g/kg): BQL; AUClast (rat plasma, oral maoto 2 g/kg): BQL; Cmax (rat plasma, oral maoto 2 g/kg): BQL
N#C[C@H](O[C@@H]1O[C@H](CO)[C@@H](O)[C@H](O)[C@H]1O)c1ccccc1 [Prunasin]	5520	0.891	2020	0.5	11900	2.45	2240	0.5	32000	3.21	3250	2	–
COc1cc2ccc(=O)oc2cc1O [Scopoletin]	0.07	–	0.216	0.25	0.428	2.39	0.425	0.25	0.591	5.44	0.237	0.25	–
CN[C@@H](C)[C@@H](O)c1ccccc1 [d-Pseudoephedrine, d-pseudoephedrine]	183	5.82	136	0.25	559	6.58	163	0.25	1180	3.86	253	0.25	–
CN[C@@H](C)[C@H](O)c1ccccc1 [l-Ephedrine, l-ephedrine]	730	1.35	311	0.25	1560	1.44	377	1	2850	4.19	545	0.25	–
